# Source: patent publication US9643992B2, “Two crystal forms of ginsenoside C-K and method for preparing same” (Zhejiang Hisun Pharmaceutical Co., Ltd., priority 2012, dated 2017)
# Assay: Thermostability test of crystal forms
# Assay type: physicochemical
# Conditions: solid sample placed at 80° C. for 1 week; change of crystal form detected
# Method: 3. Thermostability Test The samples of crystal form D, crystal form H and crystal form G were each placed for 1 week at 80° C., and subsequently the changes of the crystal form were detected.
row,Structure (SMILES),The crystal form after test
1,"CC(C)=CCC[C@](C)(O[C@@H]1O[C@H](CO)[C@@H](O)[C@H](O)[C@H]1O)[C@H]1CC[C@]2(C)[C@@H]1[C@H](O)C[C@@H]1[C@@]3(C)CC[C@H](O)C(C)(C)[C@@H]3CC[C@]12C [crystal form H, ginsenoside C-K]",no change was observed
2,"CC(C)=CCC[C@](C)(O[C@@H]1O[C@H](CO)[C@@H](O)[C@H](O)[C@H]1O)[C@H]1CC[C@]2(C)[C@@H]1[C@H](O)C[C@@H]1[C@@]3(C)CC[C@H](O)C(C)(C)[C@@H]3CC[C@]12C [crystal form G, ginsenoside C-K]",changed to crystal form D
3,"CC(C)=CCC[C@](C)(O[C@@H]1O[C@H](CO)[C@@H](O)[C@H](O)[C@H]1O)[C@H]1CC[C@]2(C)[C@@H]1[C@H](O)C[C@@H]1[C@@]3(C)CC[C@H](O)C(C)(C)[C@@H]3CC[C@]12C [crystal form D, ginsenoside C-K]",no change was observed
